Data: PubChem BioAssay (NCI)
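Results reflect a 48-hour exposure of cells in 96-well plates to compound at five concentrations. GI50 marks 50% less growth. At the TGI there is no net growth.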

Columns and labels:
Test in all cases: growth of human tumour cells (NCI), 48 h
NCI-H226 lung = test system: NCI-H226 lung
DU-145 prostate = test system: DU-145 prostate
COLO 205 colon = test system: COLO 205 colon
HL-60(TB) leukemia = test system: HL-60(TB) leukemia
HCT-116 colon = test system: HCT-116 colon
HOP-62 NSCLC = test system: HOP-62 NSCLC
SK-MEL-5 melanoma = test system: SK-MEL-5 melanoma
NCI/ADR-RES ovarian = test system: NCI/ADR-RES ovarian
UO-31 renal = test system: UO-31 renal
SF-295 CNS = test system: SF-295 CNS
K-562 leukemia = test system: K-562 leukemia
MDA-MB-435 = test system: MDA-MB-435
KM12 colon = test system: KM12 colon
ACHN renal = test system: ACHN renal
SN12C renal = test system: SN12C renal
HCT-15 colon = test system: HCT-15 colon
NCI-H23 lung = test system: NCI-H23 lung
OVCAR-8 ovarian = test system: OVCAR-8 ovarian
HOP-92 NSCLC = test system: HOP-92 NSCLC
HT29 colon = test system: HT29 colon
SF-268 CNS = test system: SF-268 CNS
RXF 393 renal = test system: RXF 393 renal
SW-620 colon = test system: SW-620 colon
A498 renal = test system: A498 renal
IGROV1 ovarian = test system: IGROV1 ovarian
SK-MEL-2 melanoma = test system: SK-MEL-2 melanoma
OVCAR-3 ovarian = test system: OVCAR-3 ovarian
OVCAR-4 ovarian = test system: OVCAR-4 ovarian
MALME-3M melanoma = test system: MALME-3M melanoma
MDA-MB-231 breast = test system: MDA-MB-231 breast
SNB-19 CNS = test system: SNB-19 CNS
RPMI-8226 leukemia = test system: RPMI-8226 leukemia
PC-3 prostate = test system: PC-3 prostate
T-47D breast = test system: T-47D breast
MCF7 breast = test system: MCF7 breast
NCI-H522 lung = test system: NCI-H522 lung
BT-549 breast = test system: BT-549 breast
UACC-257 melanoma = test system: UACC-257 melanoma
SF-539 CNS = test system: SF-539 CNS
EKVX NSCLC = test system: EKVX NSCLC
NCI-H460 lung = test system: NCI-H460 lung
SNB-75 CNS = test system: SNB-75 CNS
U251 CNS = test system: U251 CNS
HS 578T breast = test system: HS 578T breast
LOX IMVI melanoma = test system: LOX IMVI melanoma
SK-MEL-28 melanoma = test system: SK-MEL-28 melanoma
TK-10 renal = test system: TK-10 renal
CAKI-1 renal = test system: CAKI-1 renal
786-0 renal = test system: 786-0 renal
M14 melanoma = test system: M14 melanoma
SK-OV-3 ovarian = test system: SK-OV-3 ovarian
HCC-2998 colon = test system: HCC-2998 colon
OVCAR-5 ovarian = test system: OVCAR-5 ovarian
CCRF-CEM leukemia = test system: CCRF-CEM leukemia
UACC-62 melanoma = test system: UACC-62 melanoma
MOLT-4 leukemia = test system: MOLT-4 leukemia
A549 NSCLC = test system: A549 NSCLC

O=c1c2cc(I)ccc2nc(-c2cccs2)n1-c1ccc(S(=O)(=O)Nc2nccs2)cc1
GI50 (NCI-H226 lung): 24.9 µM | TGI (NCI-H226 lung): 74.8 µM | GI50 (DU-145 prostate): 27.4 µM | TGI (DU-145 prostate): > 100 µM | GI50 (COLO 205 colon): 33.5 µM | TGI (COLO 205 colon): > 100 µM | GI50 (HL-60(TB) leukemia): 50.4 µM | TGI (HL-60(TB) leukemia): > 100 µM | GI50 (HCT-116 colon): 37.1 µM | TGI (HCT-116 colon): > 100 µM | GI50 (HOP-62 NSCLC): 42.8 µM | TGI (HOP-62 NSCLC): > 100 µM | GI50 (SK-MEL-5 melanoma): 19.7 µM | TGI (SK-MEL-5 melanoma): 44.2 µM | GI50 (NCI/ADR-RES ovarian): 88.1 µM | TGI (NCI/ADR-RES ovarian): > 100 µM | GI50 (UO-31 renal): 22.6 µM | TGI (UO-31 renal): 51.6 µM | GI50 (SF-295 CNS): 27.6 µM | TGI (SF-295 CNS): > 100 µM | GI50 (K-562 leukemia): 36.6 µM | TGI (K-562 leukemia): > 100 µM | GI50 (MDA-MB-435): 36.8 µM | TGI (MDA-MB-435): > 100 µM | GI50 (KM12 colon): 39.2 µM | TGI (KM12 colon): > 100 µM | GI50 (ACHN renal): 41.3 µM | TGI (ACHN renal): > 100 µM | GI50 (SN12C renal): 37.2 µM | TGI (SN12C renal): > 100 µM | GI50 (HCT-15 colon): 42.6 µM | TGI (HCT-15 colon): > 100 µM | GI50 (NCI-H23 lung): 22.5 µM | TGI (NCI-H23 lung): > 100 µM | GI50 (OVCAR-8 ovarian): 32 µM | TGI (OVCAR-8 ovarian): 98 µM | GI50 (HOP-92 NSCLC): 28.8 µM | TGI (HOP-92 NSCLC): > 100 µM | GI50 (HT29 colon): > 100 µM | TGI (HT29 colon): > 100 µM | GI50 (SF-268 CNS): 29.6 µM | TGI (SF-268 CNS): > 100 µM | GI50 (RXF 393 renal): 40 µM | TGI (RXF 393 renal): > 100 µM | GI50 (SW-620 colon): 31.3 µM | TGI (SW-620 colon): > 100 µM | GI50 (A498 renal): 22.7 µM | TGI (A498 renal): 71.5 µM | GI50 (IGROV1 ovarian): 33.2 µM | TGI (IGROV1 ovarian): > 100 µM | GI50 (SK-MEL-2 melanoma): 33.2 µM | TGI (SK-MEL-2 melanoma): > 100 µM | GI50 (OVCAR-3 ovarian): 25.3 µM | TGI (OVCAR-3 ovarian): 83.8 µM | GI50 (OVCAR-4 ovarian): 86.9 µM | TGI (OVCAR-4 ovarian): > 100 µM | GI50 (MALME-3M melanoma): 36.7 µM | TGI (MALME-3M melanoma): 99.9 µM | GI50 (MDA-MB-231 breast): 25.1 µM | TGI (MDA-MB-231 breast): 73.5 µM | GI50 (SNB-19 CNS): 41.9 µM | TGI (SNB-19 CNS): > 100 µM | GI50 (RPMI-8226 leukemia): 38.4 µM | TGI (RPMI-8226 leukemia): > 100 µM | GI50 (PC-3 prostate): 38.4 µM | TGI (PC-3 prostate): > 100 µM | GI50 (T-47D breast): 34.4 µM | TGI (T-47D breast): > 100 µM | GI50 (MCF7 breast): 41.7 µM | TGI (MCF7 breast): > 100 µM | GI50 (NCI-H522 lung): 25.9 µM | TGI (NCI-H522 lung): 76 µM | GI50 (BT-549 breast): 22.3 µM | TGI (BT-549 breast): 60.6 µM | GI50 (UACC-257 melanoma): 41.8 µM | TGI (UACC-257 melanoma): > 100 µM | GI50 (SF-539 CNS): 22.6 µM | TGI (SF-539 CNS): 44.5 µM | GI50 (EKVX NSCLC): 20.8 µM | TGI (EKVX NSCLC): 55.5 µM | GI50 (NCI-H460 lung): 34.2 µM | TGI (NCI-H460 lung): > 100 µM | GI50 (SNB-75 CNS): > 100 µM | TGI (SNB-75 CNS): > 100 µM | GI50 (U251 CNS): 27.2 µM | TGI (U251 CNS): 81.7 µM | GI50 (HS 578T breast): 26.2 µM | TGI (HS 578T breast): 84.1 µM | GI50 (LOX IMVI melanoma): 28.9 µM | TGI (LOX IMVI melanoma): 82.8 µM | GI50 (SK-MEL-28 melanoma): 78.5 µM | TGI (SK-MEL-28 melanoma): > 100 µM | GI50 (TK-10 renal): 35.2 µM | TGI (TK-10 renal): > 100 µM | GI50 (CAKI-1 renal): 21.1 µM | TGI (CAKI-1 renal): 52 µM | GI50 (786-0 renal): 54.1 µM | TGI (786-0 renal): > 100 µM | GI50 (M14 melanoma): > 100 µM | TGI (M14 melanoma): > 100 µM | GI50 (SK-OV-3 ovarian): 66.6 µM | TGI (SK-OV-3 ovarian): > 100 µM | GI50 (HCC-2998 colon): 29.5 µM | TGI (HCC-2998 colon): 62.5 µM | GI50 (OVCAR-5 ovarian): 35.3 µM | TGI (OVCAR-5 ovarian): > 100 µM | GI50 (CCRF-CEM leukemia): 38.4 µM | TGI (CCRF-CEM leukemia): > 100 µM | GI50 (UACC-62 melanoma): 22.8 µM | TGI (UACC-62 melanoma): 52.1 µM | GI50 (MOLT-4 leukemia): 61.4 µM | TGI (MOLT-4 leukemia): > 100 µM | GI50 (A549 NSCLC): 49.1 µM | TGI (A549 NSCLC): > 100 µM
